Where two headings read alike, the source gives them in different places.
Experiments:
[1] = system: Key Grass and Sedge Weeds as well as Grass Crops; experiment: Post-emergent Test II herbicidal activity (Table 6); format: in vivo; settings: post-emergence, 336 h
Procedure, shortened: (§1)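 Greenhouse post-emergent assay: seedlings (first/second true leaf) in Metro-Mix 360 were sprayed at 187 L/ha at a top rate plus twofold dilutions down to 1/16×; solvent-blank controls were included. Percent visual injury was read at 14 d.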

[2] = system: Key Broadleaf Weed and Crop Species; experiment: Post-emergent Test II herbicidal activity (Table 5); format: in vivo; settings: post-emergence, 336 h, 14 days after application; for pest or weed control at 70 g/ha: application rate 70 g ai/ha; for pest or weed control at 140 g/ha: application rate 140 g ai/ha
Procedure, shortened: as §1

[3] = ABUTH: velvetleaf (Abutilon theophrasti), read-out: Visual Growth Reduction (%) 14 Days After Application, ABUTH
[4] = AMARE: redroot pigweed (Amaranthus retroflexus), read-out: Visual Growth Reduction (%) 14 Days After Application, AMARE
[5] = BRSNN: oilseed-rape, canola (Brassica napus), read-out: Visual Growth Reduction (%) 14 Days After Application, BRSNN
[6] = CHEAL: lambsquarters (Chenopodium album), read-out: Visual Growth Reduction (%) 14 Days After Application, CHEAL
[7] = EPHHL: wild poinsettia (Euphorbia heterophylla), read-out: Visual Growth Reduction (%) 14 Days After Application, EPHHL
[8] = HELAN: sunflower (Helianthus annuus), read-out: Visual Growth Reduction (%) 14 Days After Application, HELAN
[9] = VIOTR: wild pansy (Viola tricolor), read-out: Visual Growth Reduction (%) 14 Days After Application, VIOTR

## COC(=O)c1nc(-c2ccc(C(F)(F)F)c(F)c2)cc(N)c1Cl [Compound 29, methyl 4-amino-3-chloro-6-(3-fluoro-4-(trifluoromethyl)phenyl)picolinate]
other
  melting point: 145 to 146 °C
[1]; Triticum aestivum, TRZSS (wheat), application rate 70 g ai/ha, read-out: Visual Growth Reduction (%) 14 Days After Application, TRZSS
  pest or weed control at 70 g/ha: 0 to 29%
[1]; Triticum aestivum, TRZSS (wheat), application rate 140 g ai/ha, read-out: Visual Growth Reduction (%) 14 Days After Application, TRZSS
  pest or weed control at 140 g/ha: 0 to 29%
[1]; CYPES: yellow nutsedge (Cyperus esculentus), application rate 70 g ai/ha, read-out: Visual Growth Reduction (%) 14 Days After Application, CYPES
  pest or weed control at 70 g/ha: 30 to 44%
[1]; CYPES: yellow nutsedge (Cyperus esculentus), application rate 140 g ai/ha, read-out: Visual Growth Reduction (%) 14 Days After Application, CYPES
  pest or weed control at 140 g/ha: 45 to 59%
[1]; DIGSA: crabgrass (Digitaria sanguinalis), application rate 70 g ai/ha, read-out: Visual Growth Reduction (%) 14 Days After Application, DIGSA
  pest or weed control at 70 g/ha: 30 to 44%
[1]; DIGSA: crabgrass (Digitaria sanguinalis), application rate 140 g ai/ha, read-out: Visual Growth Reduction (%) 14 Days After Application, DIGSA
  pest or weed control at 140 g/ha: 60 to 74%
[1]; ECHCG: barnyardgrass (Echinochloa crus-galli), application rate 70 g ai/ha, read-out: Visual Growth Reduction (%) 14 Days After Application, ECHCG
  pest or weed control at 70 g/ha: 0 to 29%
[1]; ECHCG: barnyardgrass (Echinochloa crus-galli), application rate 140 g ai/ha, read-out: Visual Growth Reduction (%) 14 Days After Application, ECHCG
  pest or weed control at 140 g/ha: 0 to 29%
[1]; ORYSA: rice (Oryza sativa), application rate 70 g ai/ha, read-out: Visual Growth Reduction (%) 14 Days After Application, ORYSA
  pest or weed control at 70 g/ha: 0 to 29%
[1]; ORYSA: rice (Oryza sativa), application rate 140 g ai/ha, read-out: Visual Growth Reduction (%) 14 Days After Application, ORYSA
  pest or weed control at 140 g/ha: 0 to 29%
[1]; SETFA: giant foxtail (Setaria faberi), application rate 70 g ai/ha, read-out: Visual Growth Reduction (%) 14 Days After Application, SETFA
  pest or weed control at 70 g/ha: 0 to 29%
[1]; SETFA: giant foxtail (Setaria faberi), application rate 140 g ai/ha, read-out: Visual Growth Reduction (%) 14 Days After Application, SETFA
  pest or weed control at 140 g/ha: 0 to 29%
[1]; SORVU: grain sorghum (Sorghum vulgare), application rate 70 g ai/ha, read-out: Visual Growth Reduction (%) 14 Days After Application, SORVU
  pest or weed control at 70 g/ha: 45 to 59%
[1]; SORVU: grain sorghum (Sorghum vulgare), application rate 140 g ai/ha, read-out: Visual Growth Reduction (%) 14 Days After Application, SORVU
  pest or weed control at 140 g/ha: 45 to 59%
[1]; ZEAMX: maize, corn (Zea mays), application rate 70 g ai/ha, read-out: Visual Growth Reduction (%) 14 Days After Application, ZEAMX
  pest or weed control at 70 g/ha: 0 to 29%
[1]; ZEAMX: maize, corn (Zea mays), application rate 140 g ai/ha, read-out: Visual Growth Reduction (%) 14 Days After Application, ZEAMX
  pest or weed control at 140 g/ha: 0 to 29%
[2]; [3]
  pest or weed control at 70 g/ha: 85 to 94%
  pest or weed control at 140 g/ha: 85 to 94%
[2]; [4]
  pest or weed control at 70 g/ha: 60 to 74%
  pest or weed control at 140 g/ha: 60 to 74%
[2]; [5]
  pest or weed control at 70 g/ha: 45 to 59%
  pest or weed control at 140 g/ha: 60 to 74%
[2]; [6]
  pest or weed control at 70 g/ha: 95 to 100%
  pest or weed control at 140 g/ha: 95 to 100%
[2]; [7]
  pest or weed control at 70 g/ha: 95 to 100%
  pest or weed control at 140 g/ha: 95 to 100%
[2]; [8]
  pest or weed control at 70 g/ha: 85 to 94%
  pest or weed control at 140 g/ha: 85 to 94%
[2]; [9]
  pest or weed control at 70 g/ha: 0 to 29%
  pest or weed control at 140 g/ha: 0 to 29%

## Nc1c(F)c(-c2ccc([N+](=O)[O-])cc2)nc(C(=O)O)c1Cl [Compound 31, 4-amino-3-chloro-5-fluoro-6-(4-nitrophenyl)picolinic acid]
other
  melting point: 180 to 181 °C
[1]; CYPES: yellow nutsedge (Cyperus esculentus), 70 g ai/ha, read-out: Visual Growth Reduction (%) 14 Days After Application, CYPES
  pest or weed control at 70 g/ha: 0 to 29%
[1]; CYPES: yellow nutsedge (Cyperus esculentus), 140 g ai/ha, read-out: Visual Growth Reduction (%) 14 Days After Application, CYPES
  pest or weed control at 140 g/ha: 0 to 29%
[1]; DIGSA: crabgrass (Digitaria sanguinalis), 70 g ai/ha, read-out: Visual Growth Reduction (%) 14 Days After Application, DIGSA
  pest or weed control at 70 g/ha: 60 to 74%
[1]; DIGSA: crabgrass (Digitaria sanguinalis), 140 g ai/ha, read-out: Visual Growth Reduction (%) 14 Days After Application, DIGSA
  pest or weed control at 140 g/ha: 60 to 74%
[1]; ECHCG: barnyardgrass (Echinochloa crus-galli), 70 g ai/ha, read-out: Visual Growth Reduction (%) 14 Days After Application, ECHCG
  pest or weed control at 70 g/ha: 75 to 84%
[1]; ECHCG: barnyardgrass (Echinochloa crus-galli), 140 g ai/ha, read-out: Visual Growth Reduction (%) 14 Days After Application, ECHCG
  pest or weed control at 140 g/ha: 85 to 94%
[1]; ORYSA: rice (Oryza sativa), crop, 70 g ai/ha, read-out: Visual Growth Reduction (%) 14 Days After Application, ORYSA
  pest or weed control at 70 g/ha: 0 to 29%
[1]; ORYSA: rice (Oryza sativa), crop, 140 g ai/ha, read-out: Visual Growth Reduction (%) 14 Days After Application, ORYSA
  pest or weed control at 140 g/ha: 0 to 29%
[1]; SETFA: giant foxtail (Setaria faberi), 70 g ai/ha, read-out: Visual Growth Reduction (%) 14 Days After Application, SETFA
  pest or weed control at 70 g/ha: 0 to 29%
[1]; SETFA: giant foxtail (Setaria faberi), 140 g ai/ha, read-out: Visual Growth Reduction (%) 14 Days After Application, SETFA
  pest or weed control at 140 g/ha: 0 to 29%
[1]; SORVU: grain sorghum (Sorghum vulgare), 70 g ai/ha, read-out: Visual Growth Reduction (%) 14 Days After Application, SORVU
  pest or weed control at 70 g/ha: 0 to 29%
[1]; SORVU: grain sorghum (Sorghum vulgare), 140 g ai/ha, read-out: Visual Growth Reduction (%) 14 Days After Application, SORVU
  pest or weed control at 140 g/ha: 0 to 29%
[1]; TRZSS (wheat, Triticum aestivum), crop, 70 g ai/ha, read-out: Visual Growth Reduction (%) 14 Days After Application, TRZSS
  pest or weed control at 70 g/ha: 0 to 29%
[1]; TRZSS (wheat, Triticum aestivum), crop, 140 g ai/ha, read-out: Visual Growth Reduction (%) 14 Days After Application, TRZSS
  pest or weed control at 140 g/ha: 0 to 29%
[1]; ZEAMX: maize, corn (Zea mays), crop, 70 g ai/ha, read-out: Visual Growth Reduction (%) 14 Days After Application, ZEAMX
  pest or weed control at 70 g/ha: 0 to 29%
[1]; ZEAMX: maize, corn (Zea mays), crop, 140 g ai/ha, read-out: Visual Growth Reduction (%) 14 Days After Application, ZEAMX
  pest or weed control at 140 g/ha: 0 to 29%
[2]; [3]
  pest or weed control at 70 g/ha: 0 to 29%
  pest or weed control at 140 g/ha: 0 to 29%
[2]; [4]
  pest or weed control at 70 g/ha: 95 to 100%
  pest or weed control at 140 g/ha: 95 to 100%
[2]; [5]
  pest or weed control at 70 g/ha: 30 to 44%
  pest or weed control at 140 g/ha: 45 to 59%
[2]; [6]
  pest or weed control at 70 g/ha: 60 to 74%
  pest or weed control at 140 g/ha: 85 to 94%
[2]; [7]
  pest or weed control at 70 g/ha: 0 to 29%
  pest or weed control at 140 g/ha: 0 to 29%
[2]; [8]
  pest or weed control at 70 g/ha: 95 to 100%
  pest or weed control at 140 g/ha: 95 to 100%
[2]; [9]
  pest or weed control at 70 g/ha: 0 to 29%
  pest or weed control at 140 g/ha: 0 to 29%
